Experiment [1] concerns Lettuce seedlings (Green leaf lettuce, Sakata Seed Corporation). Briefly: Example 2: effects of application on leaf surface, lettuce seedling-raising test. The class given is in vivo. The settings on record: for Weight (fresh weight, average, of the terrestrial parts): 2 weeks, n=3; for Growth rate (fresh weight of terrestrial parts relative to Control group): Control group = 100. The protocol:
(§1) Lettuce seedlings (Green leaf lettuce, Sakata Seed Corporation) were raised under the conditions described below.
(§2) Place: Inside a plant incubator
(§3) Soil: Black soil (40 ml/pot)
(§4) Light: 115 μmol m^−2 s^−1 (10,000 lux) (light period: 16 hours; dark period: 8 hours)
Number of tested plants (n): 3
(§5) Water supply: During the seedling-raising test, water was adequately supplied so as to prevent the soil in the pot from being dehydrated (about 20 ml/week).
Test groups: Four test groups: i.e., Control group, Comparative group 1, Comparative group 2, and Invention group, were provided as shown in Table 3 below.
(§6) Control group was tested through application of fertilizer elements (nitrogen, phosphorus, and potassium) only to soil without the application of GSSG.
(§7) In the case of Control group, soil was prepared to comprise nitrogen, phosphorus, and potassium in an amount of 40 mg each (120 mg in total per pot) in terms of N, P2O5, and K2O, respectively, at the time of sowing. Specifically, 40 ml of soil, 156 mg of ammonium sulfate, 66 mg of monobasic ammonium phosphate, and 80 mg of potassium sulfate were weighed and introduced into a container, these components were mixed to prepare a homogeneous composition, and the resultant was introduced into a pot. Ammonium sulfate used in the experiment contained 21% of nitrogen (in terms of N), and monobasic ammonium phosphate contained 11% of nitrogen (in terms of N) and 61% of phosphorus (in terms of P2O5), and potassium sulfate contained 50% of potassium (in terms of K2O) (based on the indication of each product).
(§8) Lettuce seeds were sowed in soil in the pot and the seedling-raising test was then initiated.
Comparative group 1 was tested through application of GSSG and a fertilizer elements (nitrogen, phosphorus, and potassium) only to soil.
The method for application of fertilizer elements to soil and the amount of application are as described above with reference to Control group.
GSSG was applied to soil with the addition of an aqueous solution of GSSG to soil. At the outset, an aqueous solution of GSSG (in terms of free GSSG, the same applies hereinbelow) dissolved at 300 ppm in water was prepared. Subsequently, the aqueous solution of GSSG was applied in an amount of 4 ml each (12 ml in total) three separate times at intervals of 3 days from 6 days after seedling raising was initiated. Thus, 3.6 mg of GSSG (in terms of free GSSG) was applied during the test period per pot. […]
In Invention group, soil was prepared to contain the fertilizer elements (i.e., 36 mg each of nitrogen, phosphorus, and potassium in terms of N, P2O5, and K2O, respectively, 108 mg in total per pot) at the time of sowing. Specifically, 40 ml of soil and, as fertilizer elements, 140.4 mg of ammonium sulfate, 59.4 mg of ammonium phosphate, and 72 mg of potassium sulfate, were weighed and introduced into a container, these components were mixed to prepare a homogeneous composition, and the resultant was then introduced into a pot.
GSSG was spray-applied to the leaf surface as described below. The finely-powdered water-soluble preparation (1) of the formulation A as described in Example 1 (33.8 mg) was dissolved in 12 ml of water to prepare an aqueous solution containing GSSG and fertilizer elements. […]

For experiment [2] the test system is unchanged. Put plainly: Example 6: spray-application to leaf surface with different amounts of fertilizer elements, lettuce seedling-raising test. The class given is in vivo. As to the method: as §1, §2, §3, §4
Number of tested plants (n): 4
as §5
Test groups: […] test groups: i.e., Control group, Comparative group 7, Formulation group 1 (15 parts of the fertilizer), Formulation group 2 (30 parts of the fertilizer), Formulation group 3 (100 parts of the fertilizer), Formulation group 4 (150 parts of the fertilizer), Formulation group 5 (200 parts of the fertilizer), and Formulation group 6 (400 parts of the fertilizer), were provided as shown in Table 11 below.
as §6
as §7, with “contain” for “comprise”, “elements” for “components”, “N),” for “N), and”
as §8
Comparative group 7 was tested through application of GSSG to the leaf surface and fertilizer elements (nitrogen, phosphorus, and potassium) to soil. […]

The values below come from patent US10662124B2, “Fertilizer composition containing oxidized glutathione and fertilizer element for foliar application” (Kaneka Corporation, priority 2015, dated 2020).

Turning to Oxidized glutathione [GSSG], the “Plant growth promotion versus Control group” value in experiment [1] (Comparative group 1 (GSSG to soil) compared with Control group) and in experiment [2] (Comparative group 7 compared with Control group) was “plant growth is promoted” in each case. Moreover, the “Weight (fresh weight, average, of the terrestrial parts)” value in experiment [1] (GSSG applied to soil, 3.6 mg per pot in three applications, fertilizer elements to soil) is listed as 90 mg; in experiment [1] (sprayed to the leaf surface three times, 12 ml in total per pot (3.5-3.6 mg GSSG), remaining fertilizer elements to soil), 103 mg; in experiment [2] (2 weeks, n=4, 3.5 mg GSSG with 0-400 parts of fertilizer per 100 parts GSSG sprayed to leaf surface three times, 12 ml in total per pot, rest of fertilizer to soil), 88 mg. In addition, the “Growth rate (fresh weight of terrestrial parts relative to Control group)” value is 130% in experiment [1] (GSSG applied to soil, 3.6 mg per pot, fertilizer elements to soil) and 149% in experiment [1] (sprayed to the leaf surface three times, 12 ml in total per pot (3.5-3.6 mg GSSG)). The “Growth rate (fresh weight of terrestrial part relative to Control group)” value in experiment [2] (Control group = 100, 3.5 mg GSSG with 0-400 parts of fertilizer per 100 parts GSSG sprayed to leaf surface) is reported as 131%.
